According to patent US11819532B2, “Peptide macrocycles against Acinetobacter baumannii” (Hoffmann-La Roche Inc., priority 2018, dated 2023):

Key:
[1] = Single dose pharmacokinetic study in male cynomolgus monkeys; conditions: cynomolgus monkey, plasma, intravenous bolus dose of 1 mg/kg, read-out: cynomolgus monkey clearance, observed in vivo
Method: Three male monkeys were administered with compound formulation (2 mg/mL in 0.9% saline) as an intravenous bolus dose of 1 mg/kg.
(§1) Blood was sampled at 0.08, 0.25, 0.5, 1, 2, 4, 7 and 24 hours after administration and the blood collecting tubes were centrifuged for 5 min at 5200 g at room temperature to isolate the plasma supernatant.
Concentrations of compound in plasma were analyzed using a LC-MS method with a calibration range of 0.5-2500 ng/mL and are summarised in Example 23.

[2] = tested on: primary hepatocytes; experiment: Hepatocyte uptake assay scaled to in vivo clearance (rat); format: in vitro ADME; conditions: scaled from rat hepatocyte uptake, well-stirred liver model
From the text: (§2) The compounds of the present invention are cleared through hepatic uptake, which can be determined experimentally in vitro using methods described in the art (e.g., K. Menochet, K. E. Kenworthy, J. B. Houston, A. Galetin, Journal of Pharmacology and Experimental Therapeutics 2012, 34, 2). In cases where the scaled in vitro hepatocyte uptake clearance data correspond to the clearance observed in animals, a meaningful prediction of the human clearance can be made on the basis of in vitro human hepatocyte uptake data.
(§3) The hepatocyte uptake assay was performed manually in 24-well plates in analogy to a protocol described in the literature (K. Menochet, K. E. Kenworthy, J. B. Houston, A. Galetin, Journal of Pharmacology and Experimental Therapeutics 2012, 34, 2). […] Next, the cell monolayer was lysed using acetonitrile/water 3:1, and the intracellular concentration was measured using LC-MS/MS.
(§4) Total (CLuptake) and passive (CLpassive) uptake clearance values were measured from initial uptake rates in the absence and presence of inhibitors. Uptake rates were calculated over 10 minutes at 37° C. from the slope of the linear regression of the cell concentrations versus time plot. Total and passive uptake clearance values were calculated by dividing the slope by the initial substrate concentration and were normalized for protein content. […]

[3] = tested on: primary hepatocytes; experiment: Hepatocyte uptake assay scaled to in vivo clearance (human); format: in vitro ADME; conditions: scaled from human hepatocyte uptake, well-stirred liver model
From the text: as §2, §3, §4

[4] = Single dose pharmacokinetic study in male rats; conditions: rat, plasma, intravenous bolus dose of 6 mg/kg, read-out: rat clearance, observed in vivo
Method: Three male rats were administered with compound formulation (3 mg/mL in 0.9% saline) as an intravenous bolus dose of 6 mg/kg.
as §1
Concentrations of compound in plasma were analyzed using a LC-MS method with a calibration range of 1-2500 ng/mL. The clearance values are calculated using methods described in the art and are summarised in Example 23.

[5] = tested on: A. baumannii ATCC 17978; experiment: 50% growth inhibitory concentration (IC50) determination, antimicrobial susceptibility testing; format: cell-based; conditions: Acinetobacter baumannii; 50% growth inhibition, A. baumannii strain ATCC17978, Iso-Sensitest medium; read-out: IC50 ATCC17978
Method: The in vitro antimicrobial activity of the compounds was alternatively determined according to the following procedure:
The assay used a 10-points Iso-Sensitest broth medium to measure quantitatively the in vitro activity of the compounds against A. baumannii ATCC 17978.
Stock compounds in DMSO were serially twofold diluted (e.g. range from 50 to 0.097 μM or from 10 to 0.020 μM final concentration) in 384 wells microtiter plates and inoculated with 49 μl the bacterial suspension in Iso-Sensitest medium to have a final cell concentration of ˜5×10^(5)CFU/ml in a final volume/well of 50 μl/well. Microtiter plates were incubated at 35±2° C.
Bacterial cell growth was determined with the measurement of optical density at X=600 nm each 20 minutes over a time course of 16h.
Growth inhibition was calculated during the logarithmic growth of the bacterial cells with determination of the concentration inhibiting 50% (IC50) and 90% (IC90) of the growth.
Table 1 provides the 50% growth inhibitory concentrations (IC50) in micromoles per liter of the compounds of present invention obtained against the A. baumannii strain ATCC17978.

[6] = Plasma precipitation screening assay; parameters: species or system rat
Method: An aliquot (10 μL) of compound solubilized in physiological buffer or the formulation used for its parenteral administration in vivo, and of various dilutions thereof in phosphate-buffered saline (PBS), is mixed 1:1 with rat plasma. After 10 minutes incubation at room temperature the UV-absorption of the mixtures is measured and compared to absorption of blank plasma or plasma with vehicle solution. A significant (often concentration dependent) increase of absorption is indicative of precipitation.
Whole blood is obtained from WISTAR rats (Hanbrl:Wist SPF) under terminal anaesthesia after intraperitoneal injection of a pentobarbital solution (from animals euthanized for collection of tissue for other experimental purposes). Blood is collected in 1.2 mL of Heparin S-Monovette tubes (Sarstedt) for the preparation of heparin plasma.
The tubes are then centrifuged for 5 min at 5200 g at room temperature to isolate the plasma supernatant. The plasma is used in the assay within 48 h of collection (storage at 4° C.).
Test compounds are received as powder or formulated. When obtained as powder, they are solubilized in 0.9% aq. sodium chloride solution in order to get the highest indicated concentration to be tested. The solubility is visually checked and the solutions are filtered using 0.45 PVDF hydrophilic filters (Durapore®, Darmstadt, Germany), to remove possible solid impurities. pH of this initial solution might be measured in the filtered stock solutions, before proceeding to prepare a compound dilution series in PBS (1:1-dilution steps).
The assay is conducted in 384-well plates. 10 μL of rat plasma is added to 10 μL of the various compound solutions. The assay is performed in duplicate. 10 μL of vehicle (0.9% aq. sodium chloride solution, PBS) added to the plasma is used as a negative control. The absorption is measured at 362 nm.
Raw data obtained are absorbance data. The difference between absorbance of the sample and mean absorbance of vehicle is calculated. The minimal effect concentration (MEC) is defined as the lowest concentration giving an absorbance difference, OD362≥0.05.

[7] = tested on: primary hepatocytes; experiment: Hepatocyte uptake assay scaled to in vivo clearance (cynomolgus monkey); format: in vitro ADME; conditions: scaled from monkey hepatocyte uptake, well-stirred liver model
From the text: as §2, §3, §4

[8] = positive control and comparator in all assay runs; cited from earlier work
[9] = Wistar (Hanbrl:Wist SPF), rat, 10 min

Row | Structure (SMILES) | clearance [1] [mL/min/kg] | rat clearance, in vitro scaled [2] [mL/min/kg] | human clearance, in vitro scaled (predicted) [3] [mL/min/kg] | clearance [4] [mL/min/kg] | IC50 [5] [nM] | Plasma precipitation MEC ([6]; minimal effect concentration, lowest concentration giving absorbance difference OD362≥0.05, rat plasma 1:1, 10 minutes room temperature) [µmol/L] | cynomolgus monkey clearance, in vitro scaled [7] [mL/min/kg] | precipitation in plasma [8] | Plasma precipitation MEC [6, 9] [µmol/L]
1 | CN1C(=O)[C@H](CCCCN)NC(=O)[C@H](CCCN)NCc2cccnc2Sc2cccc(-c3ccc(C(=O)O)cc3)c2CNC(=O)[C@@H]1Cc1c[nH]c2ccccc12 [Example 1.00, 4-[(11S,14S,17S)-14-(4-Aminobutyl)-1-(3-aminopropyl)-17-(1H-indol-3-ylmethyl)-16-methyl-12,15,18-trioxo-2-thia-4,10,13,16,19-pentazatricyclo[19.4.0.03,8]pentacosa-1(25), 3(8),4,6,21,23-hexaen-22-yl]benzoic Acid] | 4.8 | 14.5 | 0.46 | 14.3 | 98 | 1110 | 3.8 | – | –
2 | CN1C(=O)[C@H](CCCCN)NC(=O)[C@H](CCCN)NCc2cccnc2Sc2c(Cl)ccc(Cl)c2CNC(=O)[C@@H]1Cc1c[nH]c2ccccc12 [CAS-RN 2097284-11-0, (11S,14S,17S)-14-(4-Aminobutyl)-11-(3-aminopropyl)-22,25-dichloro-17-(1H-indol-3-ylmethyl)-16-methyl-2-thia-4,10,13,16,19-pentazatricyclo[19.4.0.03,8]pentacosa-1(25),3(8),4,6,21,23-hexaene-12,15,18-trione] | – | – | – | – | – | – | – | known to induce precipitation in plasma | –
3 | CN1C(=O)[C@H](CCCCN)NC(=O)[C@H](CCCN)NCc2cccnc2Sc2c(Cl)ccc(-c3ccc(C(=O)O)cc3)c2CNC(=O)[C@@H]1Cc1c[nH]c2ccccc12 [drawing 99, reference compound] | 14.5 | 28.7 | 3.91 | 23.5 | – | – | 28.3 | – | –
4 | CN1C(=O)[C@H](CCCN)NC(=O)[C@H](CCCN)NCc2cccnc2Sc2c(F)ccc(-c3ccc(C(=O)O)nc3)c2CNC(=O)[C@@H]1Cc1c[nH]c2ccccc12 [Example 14.01, 5-[(11S,14S,17S)-11,14-bis(3-Aminopropyl)-25-fluoro-17-(1H-indol-3-ylmethyl)-16-methyl-12,15,18-trioxo-2-thia-4,10,13,16,19-pentazatricyclo[19.4.0.03,8]pentacosa-1(25), 3(8), 4,6,21,23-hexaen-22-yl]pyridine-2-carboxylic Acid] | – | – | – | – | 90 | – | – | – | 880
5 | COc1ccc(-c2ccc(C(=O)O)cc2)c2c1Sc1ncccc1CN[C@@H](CCCN)C(=O)N[C@@H](CCCCN)C(=O)N(C)[C@@H](Cc1c[nH]c3ccccc13)C(=O)NC2 [Example 11.00, 4-[(11S,14S,17S)-14-(4-Aminobutyl)-11-(3-aminopropyl)-17-(1H-indol-3-ylmethyl)-25-methoxy-16-methyl-12,15,18-trioxo-2-thia-4,10,13,16,19-pentazatricyclo[19.4.0.03,8]pentacosa-1(25), 3(8), 4,6,21,23-hexaen-22-yl]benzoic Acid] | – | – | – | – | 71 | – | – | – | 1720
6 | CN1C(=O)[C@H](CCCCN)NC(=O)[C@H](CCCN)NCc2cccnc2Sc2c(Cl)ccc(-c3ccc(C(=O)O)c(S(C)(=O)=O)c3)c2CNC(=O)[C@@H]1Cc1c[nH]c2ccccc12 [Example 2.00, 4-[(11S,14S,17S)-14-(4-Aminobutyl)-11-(3-aminopropyl)-25-chloro-17-(1H-indol-3-ylmethyl)-16-methyl-12,15,18-trioxo-2-thia-4,10,13,16,19-pentazatricyclo[19.4.0.03,8]pentacosa-1(25), 3(8), 4,6,21,23-hexaen-22-yl]-2-methylsulfonyl-benzoic Acid] | – | – | – | – | 73 | – | – | – | 950
